Measured values reported in patent US9738661.
Like-named read-outs stand apart in the source and are kept apart here.

For `COC(=O)[C@@H]1C[C@@H]2CN1C(=O)[C@H](C(C)(C)C)NC(=O)O[C@@H]1CCC[C@H]1CCCC=Cc1nc3ccc(OC)cc3cc1O2`, which ring closure, yield of all isomers (from C=CCCC[C@@H]1CCC[C@H]1OC(=O)N[C@H](C(=O)N1C[C@H](Oc2cc3cc(OC)ccc3nc2C=C)C[C@H]1C(=O)OC)C(C)(C)C, rcm bond, Zhan catalyst, DCE, 16.0 mM, 90.0 °C, 2.0 h) is on record?
Its ring closure, yield of all isomers is 84%.

With `COC(=O)[C@@H]1C[C@@H]2CN1C(=O)[C@H](C(C)(C)C)NC(=O)OCCCCCC=Cc1ccccc1C#CCO2.[C-]#[O+].[C-]#[O+].[C-]#[O+].[C-]#[O+].[C-]#[O+].[C-]#[O+].[Co].[Co]` as the compound, how does the ring closure, yield of all isomers (from C=CCCCCCOC(=O)N[C@H](C(=O)N1C[C@H](OCC#Cc2ccccc2C=C)C[C@H]1C(=O)OC)C(C)(C)C.[C-]#[O+].[C-]#[O+].[C-]#[O+].[C-]#[O+].[C-]#[O+].[C-]#[O+].[Co].[Co], rcm bond) read?
The ring closure, yield of all isomers was 34.5%.

For `COC(=O)[C@@H]1C[C@@H]2CN1C(=O)[C@H](C(C)(C)C)NC(=O)OCCCCC/C=C/c1cccnc1O2`, which ring closure, yield of all isomers (from C=CCCCCCOC(=O)N[C@H](C(=O)N1C[C@H](Oc2ncccc2C=C)C[C@H]1C(=O)OC)C(C)(C)C, rcm bond, Zhan 1b catalyst, DCM, 5.03 mM, 16.0 h) is on record?
Its ring closure, yield of all isomers is 92.9%.

With `C=C1CCCCCOC(=O)N[C@@H](C2CCCCC2)C(=O)N2C[C@@H](C[C@H]2C(=O)OC)Oc2ccc3ccccc3c21` as the compound, how does the ring closure, yield of all isomers (from C=CCCCCCOC(=O)N[C@H](C(=O)N1C[C@H](Oc2ccc3ccccc3c2Br)C[C@H]1C(=O)OC)C1CCCCC1, cc_pd bond, PdCl2(dppf)-DCM, EtOH, 50.3 mM, 78.0 °C, 48.0 h) read?
Its ring closure, yield of all isomers is 52.7%.

With `CCCC[C@@H]1NC(=O)OCCCCC=CCc2ccccc2O[C@@H]2C[C@@H](C(=O)OC)N(C2)C1=O` as the compound, how does the ring closure, yield of all isomers (from C=CCCCCOC(=O)N[C@@H](CCCC)C(=O)N1C[C@H](Oc2ccccc2CC=C)C[C@H]1C(=O)OC, rcm bond, Zhan 1a catalyst, DCE, 4.9 mM, 83.0 °C, 2.0 h) read?
The ring closure, yield of all isomers was 100%.

Which ring closure, yield of all isomers (from C=CCCC[C@@H]1CCC[C@H]1OC(=O)N[C@H](C(=O)N1C[C@H](Oc2cc3ccccc3nc2C=C)C[C@H]1C(=O)OC)C1CCCC1, rcm bond, Zhan catalyst, DCE, 10.0 mM, 90.0 °C, 1.5 h) does the source give for `COC(=O)[C@@H]1C[C@@H]2CN1C(=O)[C@H](C1CCCC1)NC(=O)O[C@@H]1CCC[C@H]1CCCC=Cc1nc3ccccc3cc1O2` (mixture of isomers) here?
The ring closure, yield of all isomers was 74%.

Which ring closure, yield of all isomers (from C=CCCCCOC(=O)N[C@H](C(=O)N1C[C@H](NC(=O)OC2CCCCC2CC=C)C[C@H]1C(=O)OC)C(C)(C)C, rcm bond, Zhan 1a catalyst, DCE, 5.0 mM, 83.0 °C, 1.5 h) does the source give for `COC(=O)[C@@H]1C[C@@H]2CN1C(=O)[C@H](C(C)(C)C)NC(=O)OCCCCC=CCC1CCCCC1OC(=O)N2` (stereo partly shown) here?
Its ring closure, yield of all isomers is 49.8%.
